Active and inactive are the calls of the source. No rule for the calls is given here.

In the data set the test system is rodent carcinogenicity bioassays, tumor incidence. The experiment in a line: CCRIS carcinogenicity studies. The method in brief: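 Archive of carcinogenicity, mutagenicity, tumor promotion and tumor inhibition results drawn from journals, NCI reports and other sources, expert-reviewed; covers 1985-2011 and is no longer updated.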

On to `c1ccc2c(c1)cc1ccc3cccc4ccc2c1c34`, for which the carcinogen call is “active; positive” (Species: MOUSE, Strain/Sex: SWISS/FEMALE, Route: DERMAL, Dose: 0, 2.2, 6.6, 20 NMOL IN 50 µL ACETONE 2/WK FOR 48 WK (STUDY DURATION: 61 WK), Dose: 0, 2.2, 6.6, 20 NMOL IN 50 µL ACETONE 2/WK FOR 48 WK (STUDY DURATION: 61 WK), Tumor Site: Type of Lesion: SKIN: PAPILLOMA, SKIN: SQUAMOUS CELL CARCINOMA); “active; positive” (Species: MOUSE, Strain/Sex: SWISS/FEMALE, Route: DERMAL, Dose: 0, 22.2, 66.6, 200 NMOL IN 50 µL ACETONE 2/WK FOR 48 WK (STUDY DURATION: 61 WK), Dose: 0, 22.2, 66.6, 200 NMOL IN 50 µL ACETONE 2/WK FOR 48 WK (STUDY DURATION: 61 WK), Tumor Site: Type of Lesion: SKIN: SQUAMOUS CELL CARCINOMA); “active; positive” (Species: MOUSE, Strain/Sex: SWISS/FEMALE, Route: DERMAL, Dose: 0.01-0.5%, 3/WK, Tumor Site: Type of Lesion: INTEGUMENTARY SYSTEM (SKIN): CARCINOMA, PAPILLOMA); “active; positive” (Species: MOUSE, Strain/Sex: SWISS/FEMALE, Route: DERMAL, Dose: 0.1-9 UG, 3/WK FOR < 700 D, Tumor Site: Type of Lesion: INTEGUMENTARY SYSTEM (SKIN)); “active; positive” (Species: MOUSE, Strain/Sex: WILDTYPE/MALE, Route: GAVAGE, Dose: 0, 13, 39 MG/KG BW IN 0.1 ML SOY OIL 3/WK FOR 13 WK (STUDY DURATION: 291 D), Dose: 0, 13, 39 MG/KG BW IN 0.1 ML SOY OIL 3/WK FOR 13 WK (STUDY DURATION: 291 D), Tumor Site: Type of Lesion: LYMPHATIC SYSTEM: LYMPHOMA, FORESTOMACH: TUMOR); “inactive; negative” (Species: Mouse, Strain/Sex: 129 x MF1 Gstp-null (14-15 males and females), Route: Intraperitoneal, Dose: 200 mg/kg, once, study duration 5 mo, Tumor Site: Type of Lesion: Lung: adenoma (incidence 71% vs 27% in controls, multiplicity 3.0 vs 0.3 in controls)). In addition, the carcinogen call is, setting by setting: (Species: Mouse, Strain/Sex: 129 x MF1 wild type (14-16 males and females), Route: Intraperitoneal, Dose: 200 mg/kg, once, study duration 5 mo, Tumor Site: Type of Lesion: Lung: adenoma (incidence 29% vs 25% in controls, multiplicity 0.4 vs 0.3 in controls)) “inactive; negative”; (Species: RABBIT, Route: DERMAL, Dose: 0.001-0.5%, 5/WK, Tumor Site: Type of Lesion: INTEGUMENTARY SYSTEM (SKIN)) “active; positive”; (Species: RABBIT, Route: DERMAL, Tumor Site: Type of Lesion: INTEGUMENTARY SYSTEM (SKIN): PAPILLOMA, CARCINOMA) “active; positive”; (Species: RAT, Route: INTRATRACHEAL, Dose: 0.0005-2.5 MG, 1/MO FOR 10 MO, OBSERVED 2 YR, Tumor Site: Type of Lesion: LUNG) “active; positive”; (Species: RAT, Route: SUBCUTANEOUS, Dose: 0.05, 0.1, 0.5, 1.0 MG, SINGLE DOSE, Tumor Site: Type of Lesion: INJECTION SITE) “active; positive”; (Species: RAT, Route: SUBCUTANEOUS, Tumor Site: Type of Lesion: INJECTION SITE) “active; positive”. Moreover, the carcinogen call (Species: RAT, Strain/Sex: F344/MALE, Route: LUNG IMPLANT, Dose: 0, 50, 100, 200 UG IN BEESWAX/TRICAPRYLIN INTO LEFT LUNG ONCE (STUDY DURATION: 100 WK), Dose: 0, 50, 100, 200 UG IN BEESWAX/TRICAPRYLIN INTO LEFT LUNG ONCE (STUDY DURATION: 100 WK), Tumor Site: Type of Lesion: LUNG: SQUAMOUS CELL CARCINOMA) was “active; positive”; the carcinogen call (Species: RAT, Strain/Sex: F344/MALE, Route: PULMONARY IMPLANT, Dose: 0, 50, 100, 200 UG IN 50 µL BEESWAX/TRICAPRYLIN IMPLANTED FOR UP TO 100 WK (STUDY DURATION: 100 WK), Dose: 0, 50, 100, 200 UG IN 50 µL BEESWAX/TRICAPRYLIN IMPLANTED FOR UP TO 100 WK (STUDY DURATION: 100 WK), Tumor Site: Type of Lesion: LUNG: TUMOR) was “active; positive”; the carcinogen call (Species: RAT, Strain/Sex: F344/MALE, Route: SUBCUTANEOUS IMPLANT, Dose: 0, 8, 40, 200, 1000 UG IN 50 µL BEESWAX/TRICAPRYLIN IMPLANTED FOR UP TO 45 WK (STUDY DURATION: 45 WK), Dose: 0, 8, 40, 200, 1000 UG IN 50 µL BEESWAX/TRICAPRYLIN IMPLANTED FOR UP TO 45 WK (STUDY DURATION: 45 WK), Tumor Site: Type of Lesion: IMPLANT SITE: TUMOR) was “active; positive”; the carcinogen call (Species: RAT, Strain/Sex: OSBORNE-MENDEL/FEMALE, Route: INTRAPULMONARY IMPLANT, Dose: 0, 0.03, 0.1, 0.3 MG IN BEESWAX AND TRIOCTANOIN IMPLANTED IN LUNG (STUDY DURATION: 141 WK), Dose: 0, 0.03, 0.1, 0.3 MG IN BEESWAX AND TRIOCTANOIN IMPLANTED IN LUNG (STUDY DURATION: 141 WK), Tumor Site: Type of Lesion: LUNG: CARCINOMA) was “active; positive”; the carcinogen call (Species: RAT, Strain/Sex: OSBORNE-MENDEL/FEMALE, Route: LUNG IMPLANT, Dose: 0, 0.1, 0.3, 1.0 MG IN BEESWAX/TRIOCTANOIN (STUDY DURATION: LIFETIME), Dose: 0, 0.1, 0.3, 1.0 MG IN BEESWAX/TRIOCTANOIN (STUDY DURATION: LIFETIME), Tumor Site: Type of Lesion: LUNG: EPIDERMOID CARCINOMA, PLEOMORPHIC SARCOMA) was “active; positive”; the carcinogen call (Species: RAT, Strain/Sex: SPRAGUE-DAWLEY/FEMALE, Route: INJECTION, Dose: 0, 0.25, 1 UMOL PER MAMMARY GLAND (STUDY DURATION: 24 WK), Dose: 0, 0.25, 1 UMOL PER MAMMARY GLAND (STUDY DURATION: 24 WK), Tumor Site: Type of Lesion: MAMMARY GLAND: TUMOR) is “active; positive”. The carcinogen call (Species: RAT, Strain/Sex: SPRAGUE-DAWLEY/FEMALE, Route: INTRAVENOUS, Dose: 39 MG/KG, SINGLE DOSE, Tumor Site: Type of Lesion: MAMMARY GLAND: CARCINOMA) is “active; positive”; the carcinogen call (Species: RAT, Strain/Sex: SPRAGUE-DAWLEY/FEMALE, Route: INTRAVENOUS, Tumor Site: Type of Lesion: MAMMARY GLAND: CARCINOMA) was “active; positive”; the carcinogen call (Species: RAT, Strain/Sex: STRAIN-CD/FEMALE, Route: GAVAGE, Dose: 0, 50 UMOL IN 0.5 ML TRIOCTANOIN 1/WK FOR 8 WK (STUDY DURATION: 49 WK), Tumor Site: Type of Lesion: MAMMARY GLAND: FIBROADENOMA, DESMOPLASTIC ADENOMA, ADENOCARCINOMA) is “active; positive”.

(Values after PubChem BioAssay AID1259411 (Chemical Carcinogenesis Research Information System (CCRIS), 2018).)
